Consider 1 molecule from PMC3726599, “A Metabolically-Stabilized Phosphonate Analog of Lysophosphatidic Acid Attenuates Collagen-Induced Arthritis” (PLoS ONE, 2013).

One data set relates to T1, plasma ATX activity.
T1 construct: from tissue; host or cells: mouse plasma / whole blood
The experiment in a line: In vivo inhibition of plasma ATX activity (TOOS assay). Set-up: species or system mouse. The following applies: 10 mg/kg i.p. The protocol: ATX/LysoPLD activity was assessed based on the amount of choline released from LPC with the use of TOOS (N-ethyl-N-(2-hydoroxy-3-sulfopropyl)-3-methylaniline) reagent. In this assay ATX-mediated LPC-liberated choline is oxidised by choline oxidase to betaine and hydrogen peroxide (H2O2). The latter in the presence of horseradish peroxidase reacts with TOOS and 4-aminoantipyrene (4-AAP) to form a pink quinoneimine dye measured at 555 nm. […]
The liberated choline was detected by adding 100 μl of a color mix containing 4-AAP and TOOS (0.3 mM), horseradish peroxidase (5.3 UnitmL^−1) and choline oxidase (2 UnitmL^−1). Absorbance was measured at 555 nm and data were analyzed using the statistical software package Prism 4.0 (Graphpad Software Inc, La Jolla, CA, USA). For each sample and control the absorbance was plotted against time and the slope (da/min) for the linear (steady-state) portion of each reaction profile was calculated. Absorbance units were converted to nmol of choline/min/ml by comparison with a choline standard curve or by use of the extinction coefficient for the quinoneimine dye according to the following equation: [drawing 1] […]
BrP-LPA was administered intraperitoneally (IP) at 10 mg/kg in water to 6–8 week old female mice. […] Plasma samples were then analysed for plasma ATX activity and BrP-LPA/LPA/LPC levels with the TOOS activity assay and HPLC-MS/MS respectively. […]

Data set [1] concerns collagen induced arthritis (CIA). Kind of data set: Collagen induced arthritis (CIA) in DBA/1 mice. It is filed as in vivo, mouse. The protocol:
CIA in DBA/1 mice was induced by immunization with collagen type II emulsified in complete Freund's adjuvant essentially as previously described, [43]. Mice were assessed for disease clinical signs two to three times per week. Clinical signs of arthritis were determined using the following scoring system: 0: no evidence of erythema and swelling; 1: erythema and mild swelling confined to the […] or ankle joint; 2: erythema and mild swelling extending from the ankle to the […]; 3: erythema and moderate swelling extending from the ankle to metatarsal joints; 4: erythema and severe swelling encompassing the ankle, foot and digits, or ankylosis of the limb.
Paraffin-embedded joint tissue samples were sectioned and stained with hematoxylin and eosin as previously described, [44]. Arthritic histopathology in mice was assessed (in a blinded fashion from 3 independent examiners) using a semi-quantitative scoring system as previously described for CIA in a DBA/1 (H-2^q) background. 0: no detectable pathology; 1: hyperplasia of the synovial membrane and presence of polymorphonuclear infiltrates – mild tendonitis may be present; 2: pannus and fibrous tissue formation and focal subchondrial bone erosion: 3: cartilage destruction and bone erosion in multiple foci; 4: extensive cartilage destruction and bone erosion- bone outline structure lost. Presented results refer to an average score of all four joints.
To examine the therapeutic potential of targeting the ATX/LPA axis in RA, BrP-LPA was injected intraperitoneally twice a week (following immunization boost; Fig. 4A), in groups of mice undergoing the development of collagen induced arthritis (CIA).
A. Schematic representation of immunization and drug administration schemes. DBA/1 mice subjected to CIA were treated intraperitoneally with vehicle, BrP-LPA (10 mg/kg), or dexamethasone (Dex, 3 mg/kg) twice a week. B–C. […] Data are pooled from two different experiments (n = 10). […] Joint sections were assessed histologically in a blinded manner by three independent examiners. Data are shown as mean joint values per mouse ± SD. […] Levels of CII-specific Abs were determined by ELISA in mouse sera.

Data set [2] deals with transformed NIH3T3 cells expressing ras and ATX. Set-up: method as in PMID 18454946. The following applies: cited from earlier work.
[3] abbreviates: 10 mg/kg i.p. twice a week, DBA/1 mice.

`CCCCCCCCCCCCCCCC(=O)OC[C@@H](O)CC(Br)P(=O)(O)O` (stereo partly drawn) [BrP-LPA, 1-bromo-3(S)-hydroxy-4-(palmitoyloxy)butyl-phosphonate]: in the data set on plasma ATX activity (1 hour post administration), the “reduction of plasma ATX activity” value came out at 48%. The “ATX activity, % of initial activity” value with plasma ATX activity (sixteen hours post administration) is on record as 92%. Besides, in data set [1] (setting [3]), the “development of arthritis (number of arthritic limbs per mouse)” value is on record as “development of arthritis in significantly fewer mice” and the “severity per arthritic limb” value was “reduced severity per arthritic limb”. The “histopathological analysis of the joints” value in data set [1] (10 mg/kg i.p. twice a week, H&E) was “marked decreased inflammation and synovial hyperplasia”. In data set [1] (10 mg/kg i.p. twice a week, data not shown), the “gross physiology / systemic side effects” value was “no appreciable alternation of gross physiology”. Further, the “levels of anti-collagen antibodies” value in data set [1] (ELISA in mouse sera) is given as “did not interfere with the levels of anti-collagen antibodies”. Besides, in data set [1] (data not shown), the “BrP-LPA levels in joint tissue versus liver tissue and plasma” value is recorded as “persist for longer in joint tissue”. For the same molecule, the “LPA (or LPC) levels in plasma or joint tissue at end of monitoring” value in data set [1] (three days after the last injection, data not shown) is “no changes in LPA (or LPC) levels were detected”. The inhibition of invasiveness in data set [2] is 40%.
